ChEMBL document CHEMBL1201862, “PubChem BioAssay data set” (2004)
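Step 1: Grow cells in 96-well plates. Step 2: Expose to compound for 48 hours at 5 concentrations. Step 3: Interpolate endpoints linearly; if unreached, use highest concentration. GI50 is the concentration that inhibits growth by half.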 Activity calls are given as the source filed them. Rule as the data show it: active = GI50 up to about 1.1 µM and inactive = higher.

Experiments:
Assay in all cases: NCI anticancer screen, dose series, 48 h
HCC 2998 = system: HCC 2998
OVCAR-3 = system: OVCAR-3
XF498 = system: XF498
MOLT-4 = system: MOLT-4
SK-MEL-28 = system: SK-MEL-28
OVCAR-5 = system: OVCAR-5
HCT-116 = system: HCT-116
SW-620 = system: SW-620
UO-31 = system: UO-31
IGROV-1 = system: IGROV-1
786-0 = system: 786-0
M19-MEL = system: M19-MEL
SK-MEL-5 = system: SK-MEL-5
NCI-H226 = system: NCI-H226
ACHN = system: ACHN
Malme-3M = system: Malme-3M
OVCAR-8 = system: OVCAR-8
KM12 = system: KM12
SN12C = system: SN12C
NCI-H460 = system: NCI-H460
HOP-62 = system: HOP-62
UACC-62 = system: UACC-62
NCI-H23 = system: NCI-H23
LXFL 529 = system: LXFL 529
CAKI-1 = system: CAKI-1
UACC-257 = system: UACC-257
COLO 205 = system: COLO 205
SF-295 = system: SF-295
DMS-114 = system: DMS-114
DMS-273 = system: DMS-273
SNB-75 = system: SNB-75
SF-539 = system: SF-539
RPMI-8226 = system: RPMI-8226
HOP-92 = system: HOP-92
SK-OV-3 = system: SK-OV-3
NCI-H522 = system: NCI-H522
U-251 = system: U-251
HCT-15 = system: HCT-15
SK-MEL-2 = system: SK-MEL-2
LOX IMVI = system: LOX IMVI
M14 = system: M14
SNB-78 = system: SNB-78
RXF 393 = system: RXF 393
RXF 631 = system: RXF 631
EKVX = system: EKVX
OVCAR-4 = system: OVCAR-4
A498 = system: A498
K562 = system: K562
SF-268 = system: SF-268
KM-20L2 = system: KM-20L2
SNB-19 = system: SNB-19
TK-10 = system: TK-10

**Q.** What does the source list for Cc1cccc(N2C(=O)C(=O)C(c3nc4ccccc4s3)/C(=N/NC(=S)NN)C2=O)c1C (configuration not stated)?
**A.** GI50 (HCC 2998): > 100 µM (inactive); GI50 (OVCAR-3): > 100 µM (inactive); GI50 (XF498): > 100 µM (inactive); GI50 (MOLT-4): 90.6 µM (inactive); GI50 (SK-MEL-28): > 100 µM (inactive); GI50 (OVCAR-5): > 100 µM (inactive); GI50 (HCT-116): > 100 µM (inactive); GI50 (SW-620): > 100 µM (inactive); GI50 (UO-31): > 100 µM (inactive); GI50 (IGROV-1): > 100 µM (inactive); GI50 (786-0): > 100 µM (inactive); GI50 (M19-MEL): > 100 µM (inactive); GI50 (SK-MEL-5): > 100 µM (inactive); GI50 (NCI-H226): > 100 µM (inactive); GI50 (ACHN): > 100 µM (inactive); GI50 (Malme-3M): > 100 µM (inactive); GI50 (OVCAR-8): > 100 µM (inactive); GI50 (KM12): > 100 µM (inactive); GI50 (SN12C): > 100 µM (inactive); GI50 (NCI-H460): > 100 µM (inactive); GI50 (HOP-62): > 100 µM (inactive); GI50 (UACC-62): > 100 µM (inactive); GI50 (NCI-H23): > 100 µM (inactive); GI50 (LXFL 529): > 100 µM (inactive); GI50 (CAKI-1): > 100 µM (inactive); GI50 (UACC-257): > 100 µM (inactive); GI50 (COLO 205): > 100 µM (inactive); GI50 (SF-295): > 100 µM (inactive); GI50 (DMS-114): > 100 µM (inactive); GI50 (DMS-273): > 100 µM (inactive); GI50 (SNB-75): > 100 µM (inactive); GI50 (SF-539): > 100 µM (inactive); GI50 (RPMI-8226): > 100 µM (inactive); GI50 (HOP-92): > 100 µM (inactive); GI50 (SK-OV-3): > 100 µM (inactive); GI50 (NCI-H522): > 100 µM (inactive); GI50 (U-251): > 100 µM (inactive); GI50 (HCT-15): > 100 µM; GI50 (SK-MEL-2): > 100 µM (inactive); GI50 (LOX IMVI): > 100 µM (inactive); GI50 (M14): > 100 µM (inactive); GI50 (SNB-78): > 100 µM (inactive); GI50 (RXF 393): > 100 µM (inactive); GI50 (RXF 631): > 100 µM (inactive); GI50 (EKVX): > 100 µM (inactive); GI50 (OVCAR-4): > 100 µM (inactive); GI50 (A498): > 100 µM (inactive); GI50 (K562): > 100 µM (inactive); GI50 (SF-268): > 100 µM (inactive); GI50 (KM-20L2): > 100 µM (inactive); GI50 (SNB-19): > 100 µM (inactive); GI50 (TK-10): > 100 µM (inactive)
